Data taken from patent publication US11572590B2, “Methods for evaluating tumor cell spheroids using 3D microfluidic cell culture device” (Dana-Farber Cancer Institute, Inc., priority 2017, dated 2023).
Where two headings read alike, the source gives them in different places.

Columns and labels:
Test in all cases: SelectScreen Kinase Profiling, single point inhibition and IC50 for off-target kinases
Assay type in all cases: biochemical
[1] = molecular target: T1, off-target kinases (Homo sapiens, UniProt O95835); settings: LATS1, LanthaScreen Binding
T1 sequence (O95835 1-1130): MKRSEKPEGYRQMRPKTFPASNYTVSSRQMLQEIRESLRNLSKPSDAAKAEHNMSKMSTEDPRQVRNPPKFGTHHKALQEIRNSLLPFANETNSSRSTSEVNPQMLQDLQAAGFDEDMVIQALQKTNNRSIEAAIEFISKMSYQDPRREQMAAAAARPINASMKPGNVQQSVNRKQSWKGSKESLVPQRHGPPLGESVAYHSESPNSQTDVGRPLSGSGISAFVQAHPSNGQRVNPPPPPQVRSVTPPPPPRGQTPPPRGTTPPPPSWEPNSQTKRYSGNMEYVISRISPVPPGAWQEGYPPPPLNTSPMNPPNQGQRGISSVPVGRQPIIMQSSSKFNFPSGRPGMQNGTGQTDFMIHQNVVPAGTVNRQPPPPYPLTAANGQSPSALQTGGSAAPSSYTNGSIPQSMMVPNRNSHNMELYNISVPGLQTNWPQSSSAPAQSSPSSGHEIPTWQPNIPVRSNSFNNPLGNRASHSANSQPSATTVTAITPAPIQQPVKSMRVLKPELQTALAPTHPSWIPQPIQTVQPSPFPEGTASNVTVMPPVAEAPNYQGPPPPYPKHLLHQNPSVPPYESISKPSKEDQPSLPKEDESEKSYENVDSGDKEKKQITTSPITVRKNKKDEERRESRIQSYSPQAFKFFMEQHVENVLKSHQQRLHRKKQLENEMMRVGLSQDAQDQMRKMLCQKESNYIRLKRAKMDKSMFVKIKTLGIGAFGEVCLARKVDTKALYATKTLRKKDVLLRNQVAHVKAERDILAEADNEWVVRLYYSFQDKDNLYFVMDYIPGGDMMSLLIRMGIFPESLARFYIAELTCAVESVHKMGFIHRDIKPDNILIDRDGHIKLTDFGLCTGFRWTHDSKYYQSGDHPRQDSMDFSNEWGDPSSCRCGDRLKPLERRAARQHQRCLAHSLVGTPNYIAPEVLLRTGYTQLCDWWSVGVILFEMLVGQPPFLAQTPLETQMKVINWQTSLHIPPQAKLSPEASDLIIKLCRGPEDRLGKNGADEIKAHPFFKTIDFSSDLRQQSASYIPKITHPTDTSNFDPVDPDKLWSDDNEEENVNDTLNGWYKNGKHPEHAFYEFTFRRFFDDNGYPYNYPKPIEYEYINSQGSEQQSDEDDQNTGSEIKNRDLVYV

[2] = molecular target: off-target kinases (Homo sapiens, UniProt Q13464); settings: ROCK1, ZLYTE, ATP Km app
off-target kinases (Homo sapiens, UniProt Q13464), sequence (Q13464 whole entry): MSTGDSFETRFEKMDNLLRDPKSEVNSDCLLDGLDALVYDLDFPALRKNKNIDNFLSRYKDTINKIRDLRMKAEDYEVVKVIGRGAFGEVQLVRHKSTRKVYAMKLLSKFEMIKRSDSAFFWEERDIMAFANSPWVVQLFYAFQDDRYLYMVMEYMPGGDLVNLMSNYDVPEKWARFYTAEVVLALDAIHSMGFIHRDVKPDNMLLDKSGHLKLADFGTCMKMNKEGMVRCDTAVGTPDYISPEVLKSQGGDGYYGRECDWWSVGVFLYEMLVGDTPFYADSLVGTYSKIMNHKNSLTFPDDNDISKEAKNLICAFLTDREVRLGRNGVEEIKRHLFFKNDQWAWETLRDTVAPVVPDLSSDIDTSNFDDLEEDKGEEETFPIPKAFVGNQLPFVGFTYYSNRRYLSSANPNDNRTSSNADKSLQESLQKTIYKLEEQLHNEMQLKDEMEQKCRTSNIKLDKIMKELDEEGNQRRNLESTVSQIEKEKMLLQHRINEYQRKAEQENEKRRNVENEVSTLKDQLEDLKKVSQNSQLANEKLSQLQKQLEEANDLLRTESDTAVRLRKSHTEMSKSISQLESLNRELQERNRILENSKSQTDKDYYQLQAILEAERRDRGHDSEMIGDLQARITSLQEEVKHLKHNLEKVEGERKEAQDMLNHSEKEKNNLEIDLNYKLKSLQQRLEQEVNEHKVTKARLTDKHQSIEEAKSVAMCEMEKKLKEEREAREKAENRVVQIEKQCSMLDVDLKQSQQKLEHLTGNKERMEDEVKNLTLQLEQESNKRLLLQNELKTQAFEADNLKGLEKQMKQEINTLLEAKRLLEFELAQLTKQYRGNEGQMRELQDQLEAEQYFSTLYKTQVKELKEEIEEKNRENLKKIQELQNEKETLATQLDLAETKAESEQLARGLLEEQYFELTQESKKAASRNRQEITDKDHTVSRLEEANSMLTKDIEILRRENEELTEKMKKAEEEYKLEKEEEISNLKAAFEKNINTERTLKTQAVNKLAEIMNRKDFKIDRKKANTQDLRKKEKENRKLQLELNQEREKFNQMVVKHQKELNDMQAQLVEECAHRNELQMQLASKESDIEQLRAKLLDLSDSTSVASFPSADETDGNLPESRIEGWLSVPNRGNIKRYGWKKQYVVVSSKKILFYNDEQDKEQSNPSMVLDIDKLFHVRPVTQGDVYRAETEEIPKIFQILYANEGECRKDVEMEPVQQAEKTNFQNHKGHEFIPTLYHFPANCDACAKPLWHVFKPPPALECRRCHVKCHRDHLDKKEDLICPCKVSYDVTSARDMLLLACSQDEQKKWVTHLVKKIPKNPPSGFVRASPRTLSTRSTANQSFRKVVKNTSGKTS

[3] = molecular target: off-target kinases (Homo sapiens, UniProt P50750)
off-target kinases (Homo sapiens, UniProt P50750), sequence (P50750 whole entry): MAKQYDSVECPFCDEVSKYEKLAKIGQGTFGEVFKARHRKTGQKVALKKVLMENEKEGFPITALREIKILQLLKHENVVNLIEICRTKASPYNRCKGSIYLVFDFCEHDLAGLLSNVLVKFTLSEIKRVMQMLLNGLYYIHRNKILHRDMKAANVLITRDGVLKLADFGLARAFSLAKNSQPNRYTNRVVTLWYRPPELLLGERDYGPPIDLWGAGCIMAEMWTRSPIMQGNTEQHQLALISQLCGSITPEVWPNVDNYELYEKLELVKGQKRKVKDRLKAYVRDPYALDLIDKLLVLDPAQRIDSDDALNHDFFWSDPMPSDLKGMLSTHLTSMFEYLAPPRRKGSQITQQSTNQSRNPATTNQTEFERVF

[4] = molecular target: off-target kinases (Homo sapiens, UniProt Q9Y6E0); settings: STK24 (MST3), ZLYTE, ATP Km app
off-target kinases (Homo sapiens, UniProt Q9Y6E0), sequence (Q9Y6E0 whole entry): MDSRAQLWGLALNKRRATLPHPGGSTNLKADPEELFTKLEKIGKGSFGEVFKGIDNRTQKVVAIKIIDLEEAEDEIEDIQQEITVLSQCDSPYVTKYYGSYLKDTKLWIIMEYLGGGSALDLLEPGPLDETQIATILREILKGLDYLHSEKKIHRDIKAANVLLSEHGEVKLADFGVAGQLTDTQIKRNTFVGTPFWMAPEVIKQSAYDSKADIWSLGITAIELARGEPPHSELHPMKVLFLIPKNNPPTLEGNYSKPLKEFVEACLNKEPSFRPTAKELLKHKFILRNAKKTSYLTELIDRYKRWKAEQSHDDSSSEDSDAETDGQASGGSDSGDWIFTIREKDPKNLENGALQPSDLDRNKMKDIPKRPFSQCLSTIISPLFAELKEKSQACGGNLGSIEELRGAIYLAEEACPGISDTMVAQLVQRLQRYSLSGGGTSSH

N#Cc1cc(-c2ncnc(Nc3ccc(N4CCN(C5COC5)CC4)cc3)n2)ccc1OC1CCOCC1 [Compound 1, 5-(4-((4-(4-(oxetan-3-yl)piperazin-1-yl)phenyl)amino)-1,3,5-triazin-2-yl)-2-((tetrahydro-2H-pyran-4-yl)oxy)benzonitrile]
inhibition ([1]; read-out: % Inhibition 1): -5% | inhibition ([1]; read-out: % Inhibition 2): 1% | inhibition ([1]; read-out: % Inhibition Avg): -2% | inhibition ([2]; read-out: % Inhibition 1): 6% | inhibition ([2]; read-out: % Inhibition 2): 14% | inhibition ([2]; read-out: % Inhibition Avg): 10% | inhibition ([3]; CDK9 (Inactive), LanthaScreen Binding, read-out: % Inhibition 1): 8% | inhibition ([3]; CDK9 (Inactive), LanthaScreen Binding, read-out: % Inhibition 2): 13% | inhibition ([3]; CDK9 (Inactive), LanthaScreen Binding, read-out: % Inhibition Avg): 10% | inhibition ([3]; CDK9/cyclin K, LanthaScreen Binding, read-out: % Inhibition 1): 11% | inhibition ([3]; CDK9/cyclin K, LanthaScreen Binding, read-out: % Inhibition 2): 9% | inhibition ([3]; CDK9/cyclin K, LanthaScreen Binding, read-out: % Inhibition Avg): 10% | inhibition ([3]; CDK9/cyclin T1, Adapta, ATP Km app, read-out: % Inhibition 1): 18% | inhibition ([3]; CDK9/cyclin T1, Adapta, ATP Km app, read-out: % Inhibition 2): 22% | inhibition ([3]; CDK9/cyclin T1, Adapta, ATP Km app, read-out: % Inhibition Avg): 20% | inhibition ([4]; read-out: % Inhibition 1): -5% | inhibition ([4]; read-out: % Inhibition 2): 8% | inhibition ([4]; read-out: % Inhibition Avg): 1%
